# Experimental data taken from US11780852B2, “Methods for treating Crohn's disease using 3-((1R,3s,5S)-3-((7-((5-methyl-1H-pyrazol-3-yl)amino)-1,6-naphthyridin-5-yl)amino)-8-azabicyclo[3.2.1]octan-8-yl)propanenitrile” (priority 2015, dated 2023).
# How the values were obtained:
# [1] = test system: splenic NK, B and T cells; experiment: Immunosuppression effects in mouse splenic natural killer (NK) cells; type: in vivo, Balb/C mice
# Experimental: Assay 8: Immunosuppression Effects in Mouse Splenic Natural Killer (NK) Cells Depletion of mouse splenic cells is an experimental model of immunosuppression (Kudlacz et al., Am. J. of Transplantation, 2004, 4, 51-57). […] Adult male Balb/C mice (12-14 weeks of age) from Harlan were used for the study. […] Spleens were harvested 1 or 2 h post last dose and crushed immediately for cell subtype staining. Prior to fixation, fluorophore-labelled antibodies for CD19 (FITC; B cells), CD3e (PE; pan T cells) and DX5 (APC; NK cells) were incubated with splenocyte samples from each animal to allow for simultaneous, multiple subtype % analysis on the flow cytometer. The number of total spleen cells for each animal was measured by Scepter™ 2.0 Handheld Automated Cell Counter. The absolute number of lymphocyte subtype population (e.g., splenic B, T and NK cells) was calculated from the percentage of each subtype times total spleen cells for each animal. A one way ANOVA, with Dunnett's post hoc test, was used to compare the splenic lymphocytes number of the vehicle and test compound groups. The a level was set at p<0.05. Data were presented as the mean±SEM for each group.
# [2] = First in human study of safety, tolerability and pharmacokinetics in healthy subjects; type: in vivo; settings: by comparison to other orally administered compounds
# Experimental: Assay 9: First in Human Study to Evaluate the Safety, Tolerability and Pharmacokinetics in Healthy Subjects
# The compound of Example 1 was evaluated in a double-blinded, randomized, placebo-controlled, single ascending dose (SAD) and multiple ascending dose (MAD) study of safety, tolerability, and pharmacokinetics in healthy subjects. Pharmacokinetic samples were collected up to 72 hours post the final dose in both the SAD study (after the first dose) and MAD study (after 14 days of once-daily dosing). The SAD study enrolled 5 cohorts and the MAD study enrolled 4 cohorts totaling 72 subjects, of which 71 completed the dosing period.
# Plasma pharmacokinetic (PK) parameters were determined by non-compartmental analysis using WinNonLin Version 6.4.0 (Pharsight, St Louis, Mo.). The plasma PK parameter presented here is:
# Cmax: maximum concentration in plasma
# [3] = test system: oxazolone-induced colitis; experiment: Mouse model of oxazolone-induced colitis; type: in vivo, BALB/C mice; settings: PO, 1, 3, and/or 10 mg/kg BID (doses up to 10 mg/kg BID)
# [4] = Pharmacokinetics in plasma and the GI tract in rats; type: in vivo, Sprague Dawley rats; settings: oral dosing in preclinical species
# Experimental: Assay 6: Pharmacokinetics in Plasma and the GI Tract in Rats and Dogs A test compound was dosed to male Sprague Dawley rats (n=3) as described in Assay 5. […] At all time points, the plasma concentration was below the limit of quantitation of 0.001 μg/mL.
# TYK2 = TYK2 (Homo sapiens (Human), UniProt P29597); type: biochemical
# Experimental: (§1) Assay 1: Biochemical JAK and Off-Target Kinase Assays
# (§2) A panel of four LanthaScreen JAK biochemical assays (JAK1, 2, 3 and Tyk2) were carried in a common kinase reaction buffer (50 mM HEPES, pH 7.5, 0.01% Brij-35, 10 mM MgCl2, and 1 mM EGTA). Recombinant GST-tagged JAK enzymes and a GFP-tagged STAT1 peptide substrate were obtained from Life Technologies.
# (§3) Serially diluted compounds were pre-incubated with each of the four JAK enzymes and the substrate in white 384-well microplates (Corning) at ambient temperature for 1 h. ATP was subsequently added to initiate the kinase reactions in 10 μL total volume, with 1% DMSO. […] Kinase reactions were allowed to proceed for 1 hour at ambient temperature before a 10 μL preparation of EDTA (10 mM final concentration) and Tb-anti-pSTAT1 (pTyr701) antibody (Life Technologies, 2 nM final concentration) in TR-FRET dilution buffer (Life Technologies) was added. The plates were allowed to incubate at ambient temperature for 1 h before being read on the EnVision reader (Perkin Elmer).
# (§4) Results were expressed as pIC50 (negative logarithm of IC50) and subsequently converted to pKi (negative logarithm of dissociation constant, Ki) using the Cheng-Prusoff equation.
# JAK2 = JAK2 (Homo sapiens (Human), UniProt O60674); type: biochemical
# Experimental: as §1, §2, §3, §4
# JAK1 = JAK1 (Homo sapiens (Human), UniProt P23458); type: biochemical
# Experimental: as §1, §2, §3, §4
# [5] = test system: IL-13 induced STAT6 phosphorylation in BEAS-2B human lung epithelial cells; settings: BEAS-2B cells, IL-13 induced STAT6 phosphorylation
# [6] = test system: IL-4 induced STAT6 phosphorylation in THP-1 human monocytic cells; settings: THP-1 cells, IL-4 induced STAT6 phosphorylation
# [7] = 5% to 90% relative humidity, room temperature; listed as Crystalline 3-(1R,3s,5S)-3-((7-((5-methyl-H-pyrazol-3-yl)amino)-1,6-naphthyridi))
# Experimental: A weighed sample was used and the humidity was lowest possible value (close to 0% RH) at the start of the analysis. The DMS analysis consisted of an initial drying step (0% RH) for 120 minutes, followed by two cycles of sorption and desorption with a scan rate of 5% RH/step over the humidity range of 5% RH to 90% RH. The DMS run was performed isothermally at 25° C.
# JAK2, sequence (O60674 whole entry): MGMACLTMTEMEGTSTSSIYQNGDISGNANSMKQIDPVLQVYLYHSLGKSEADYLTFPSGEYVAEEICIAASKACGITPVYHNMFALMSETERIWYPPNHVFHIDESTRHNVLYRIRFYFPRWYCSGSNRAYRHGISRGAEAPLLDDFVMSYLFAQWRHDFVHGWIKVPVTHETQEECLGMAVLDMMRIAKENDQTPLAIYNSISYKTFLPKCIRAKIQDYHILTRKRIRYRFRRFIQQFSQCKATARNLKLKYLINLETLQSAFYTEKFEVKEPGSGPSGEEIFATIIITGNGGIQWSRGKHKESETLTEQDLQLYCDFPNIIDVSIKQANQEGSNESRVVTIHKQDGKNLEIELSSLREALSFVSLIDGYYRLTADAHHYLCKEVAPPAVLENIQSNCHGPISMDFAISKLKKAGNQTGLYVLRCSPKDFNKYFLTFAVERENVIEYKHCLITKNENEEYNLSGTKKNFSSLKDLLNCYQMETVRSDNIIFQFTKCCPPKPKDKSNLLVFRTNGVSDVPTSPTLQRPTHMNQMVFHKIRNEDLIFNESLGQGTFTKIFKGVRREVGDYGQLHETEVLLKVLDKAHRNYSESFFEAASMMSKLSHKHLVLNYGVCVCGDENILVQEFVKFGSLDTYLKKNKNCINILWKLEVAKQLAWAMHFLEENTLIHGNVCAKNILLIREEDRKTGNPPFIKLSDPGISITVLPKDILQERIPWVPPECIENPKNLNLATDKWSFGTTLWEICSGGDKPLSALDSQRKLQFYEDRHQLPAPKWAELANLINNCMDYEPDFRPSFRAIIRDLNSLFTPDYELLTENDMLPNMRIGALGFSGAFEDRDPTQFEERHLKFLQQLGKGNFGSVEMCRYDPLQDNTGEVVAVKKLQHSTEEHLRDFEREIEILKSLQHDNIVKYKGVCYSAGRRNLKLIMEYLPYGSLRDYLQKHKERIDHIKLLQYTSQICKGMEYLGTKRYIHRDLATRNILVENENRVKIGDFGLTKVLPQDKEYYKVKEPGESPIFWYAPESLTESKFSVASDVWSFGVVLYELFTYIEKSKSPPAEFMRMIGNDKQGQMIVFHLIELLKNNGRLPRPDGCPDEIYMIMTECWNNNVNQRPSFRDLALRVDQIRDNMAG
# JAK1, sequence (P23458 whole entry): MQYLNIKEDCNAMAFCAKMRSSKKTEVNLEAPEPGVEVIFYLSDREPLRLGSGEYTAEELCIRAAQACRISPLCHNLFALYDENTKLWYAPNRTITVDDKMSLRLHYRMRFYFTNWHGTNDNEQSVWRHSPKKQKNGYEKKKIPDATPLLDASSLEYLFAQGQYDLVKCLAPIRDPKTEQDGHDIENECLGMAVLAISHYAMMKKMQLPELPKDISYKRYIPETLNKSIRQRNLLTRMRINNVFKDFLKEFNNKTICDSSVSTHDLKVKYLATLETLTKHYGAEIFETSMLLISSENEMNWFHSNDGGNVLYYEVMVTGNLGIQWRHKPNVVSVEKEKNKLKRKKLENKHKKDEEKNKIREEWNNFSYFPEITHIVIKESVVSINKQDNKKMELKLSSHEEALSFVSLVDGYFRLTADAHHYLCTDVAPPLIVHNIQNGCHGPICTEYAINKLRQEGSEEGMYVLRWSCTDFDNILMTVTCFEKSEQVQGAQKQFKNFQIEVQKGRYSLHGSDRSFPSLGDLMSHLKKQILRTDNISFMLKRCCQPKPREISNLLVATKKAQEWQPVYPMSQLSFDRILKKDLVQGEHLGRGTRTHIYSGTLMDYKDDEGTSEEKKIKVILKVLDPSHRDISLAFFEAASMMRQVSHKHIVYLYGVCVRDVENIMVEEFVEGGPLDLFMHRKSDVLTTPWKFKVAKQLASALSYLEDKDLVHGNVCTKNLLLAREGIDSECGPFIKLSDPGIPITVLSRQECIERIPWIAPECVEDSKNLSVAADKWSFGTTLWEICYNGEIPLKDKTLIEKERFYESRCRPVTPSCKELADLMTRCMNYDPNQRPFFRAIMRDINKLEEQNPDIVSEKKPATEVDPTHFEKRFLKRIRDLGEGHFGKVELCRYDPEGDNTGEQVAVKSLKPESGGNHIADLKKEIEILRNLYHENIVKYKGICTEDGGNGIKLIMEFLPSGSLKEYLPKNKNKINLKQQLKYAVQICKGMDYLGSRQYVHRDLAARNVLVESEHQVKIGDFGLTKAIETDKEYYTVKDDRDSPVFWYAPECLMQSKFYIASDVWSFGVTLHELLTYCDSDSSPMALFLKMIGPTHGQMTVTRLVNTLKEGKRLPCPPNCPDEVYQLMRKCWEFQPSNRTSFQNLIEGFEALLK
# TYK2, sequence (P29597 whole entry): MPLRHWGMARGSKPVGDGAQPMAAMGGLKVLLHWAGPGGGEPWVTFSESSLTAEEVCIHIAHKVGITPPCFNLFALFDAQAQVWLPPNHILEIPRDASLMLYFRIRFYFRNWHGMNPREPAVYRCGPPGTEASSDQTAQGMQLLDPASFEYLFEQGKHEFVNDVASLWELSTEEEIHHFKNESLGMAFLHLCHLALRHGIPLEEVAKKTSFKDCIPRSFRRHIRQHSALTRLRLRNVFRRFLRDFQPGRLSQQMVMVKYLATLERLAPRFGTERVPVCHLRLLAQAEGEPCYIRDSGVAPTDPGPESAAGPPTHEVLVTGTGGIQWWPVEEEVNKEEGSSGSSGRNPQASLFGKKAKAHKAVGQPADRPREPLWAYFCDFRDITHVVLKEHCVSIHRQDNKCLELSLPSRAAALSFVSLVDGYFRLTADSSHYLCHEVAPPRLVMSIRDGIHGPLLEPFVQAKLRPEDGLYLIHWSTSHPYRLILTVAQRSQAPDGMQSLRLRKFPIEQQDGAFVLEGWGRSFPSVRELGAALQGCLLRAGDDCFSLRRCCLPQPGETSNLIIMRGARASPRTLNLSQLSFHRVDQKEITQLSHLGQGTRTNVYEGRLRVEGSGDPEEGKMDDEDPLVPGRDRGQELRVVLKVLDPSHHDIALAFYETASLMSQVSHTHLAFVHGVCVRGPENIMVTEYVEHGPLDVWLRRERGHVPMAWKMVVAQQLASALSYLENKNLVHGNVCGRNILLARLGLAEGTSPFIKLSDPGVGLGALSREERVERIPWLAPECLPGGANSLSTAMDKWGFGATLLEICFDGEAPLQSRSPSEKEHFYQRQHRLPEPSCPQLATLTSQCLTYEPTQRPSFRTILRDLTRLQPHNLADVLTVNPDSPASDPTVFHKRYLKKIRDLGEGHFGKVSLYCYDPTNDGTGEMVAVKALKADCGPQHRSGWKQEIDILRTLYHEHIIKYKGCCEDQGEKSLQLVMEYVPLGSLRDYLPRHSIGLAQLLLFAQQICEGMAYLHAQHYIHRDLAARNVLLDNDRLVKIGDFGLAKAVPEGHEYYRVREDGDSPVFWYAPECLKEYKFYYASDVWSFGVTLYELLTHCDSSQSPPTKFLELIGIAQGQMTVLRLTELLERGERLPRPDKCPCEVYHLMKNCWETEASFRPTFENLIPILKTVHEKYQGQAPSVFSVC
compound,measurement,setting,value
"Cc1cc(Nc2cc3ncccc3c(N[C@@H]3C[C@H]4CC[C@@H](C3)N4CCC#N)n2)n[nH]1 [Example 1, 3-((1R,3s,5S)-3-((7-((5-methyl-1H-pyrazol-3-yl)amino)-1,6-naphthyridin-5-yl)amino)-8-azabicyclo[3.2.1]octan-8-yl)propanenitrile]",effect of immunosuppression,"[1]; mice, same dose required for efficacy in the oxazolone model",minimal effect
same,B and T cell populations (spleen),"[1]; mouse, PO BID three days",No treatment effect
same,splenic NK cell counts,"[1]; mouse, PO BID three days, tofacitinib 30 mg/kg, Example 1 up to 100 mg/kg",unaffected
same,oral bioavailability,[2],very low
same,DAI score as compared with vehicle treated animals,[3],statistically significant decrease
same,exposure throughout the gastrointestinal tract versus exposure in plasma,[4],significantly higher exposure
Cc1cc(Nc2cc3ncccc3c(N[C@@H]3C[C@H]4CC[C@@H](C3)N4CC(F)(F)F)n2)n[nH]1 [Example 1-14],Tyk 2 (pKi),TYK2,B (B represents a pKi value between 9 and 10 (Ki between 1 nM and 0.1 nM))
same,JAK 2 (pKi),JAK2,B (B represents a pKi value between 9 and 10 (Ki between 1 nM and 0.1 nM))
same,JAK 1 (pKi),JAK1,B (B represents a pKi value between 9 and 10 (Ki between 1 nM and 0.1 nM))
same,BEAS2B pIC50,[5],A (A represents a pEC50 value ≥7.5 (EC50≤32 nM))
same,THP-1 IL4 pIC50,[6],A (A represents a pEC50 value ≥7.5 (EC50≤32 nM))
"Cc1cc(Nc2cc3ncccc3c(N[C@@H]3C[C@H]4CC[C@@H](C3)N4CCC#N)n2)n[nH]1 [Form I, 3-((1R,3s,5S)-3-((7-((5-methyl-1H-pyrazol-3-yl)amino)-1,6-naphthyridin-5-yl)amino)-8-azabicyclo[3.2.1]octan-8-yl)propanenitrile]",weight gain / weight change (moisture sorption),[7],less than 0.15%
